Reference: ChEMBL document CHEMBL5154783, “Design, synthesis, and evaluation of novel 3-thiophene derivatives as potent fungistatic and fungicidal reagents based on a conformational restriction strategy” (Eur J Med Chem, 2022)
Converted amounts (≈) assume the structure as drawn. The source made the active and inactive calls. The rule behind the calls is not given here.

Key:
[1] = Cytotoxicity against human THLE-2 cells assessed as reduction in cell viability incubated for 96 hrs by MTT assay; assay type: toxicity, cell-based
[2] = system: Candida albicans; assay: Antifungal activity against Candida albicans ATCC SC5314 assessed as fungal growth inhibition by CLSI based serial microbroth dilution method; assay type: functional
[3] = system: Candida albicans; assay: Antifungal activity against Candida albicans CPCC400616 assessed as fungal growth inhibition by CLSI based serial microbroth dilution method; assay type: functional
[4] = system: Candida tropicalis; assay: Antifungal activity against Candida tropicalis CGMCC 2.3739 assessed as fungal growth inhibition by CLSI based serial microbroth dilution method; assay type: functional
[5] = system: Cryptococcus neoformans; assay: Antifungal activity against Cryptococcus neoformans CGMCC 2.3161 assessed as fungal growth inhibition by CLSI based serial microbroth dilution method; assay type: functional
[6] = system: Candida parapsilosis; assay: Antifungal activity against Candida parapsilosis GIM 2.190 assessed as fungal growth inhibition by CLSI based serial microbroth dilution method; assay type: functional; conditions: Lodderomyces parapsilosis
[7] = system: Nakaseomyces glabratus; assay: Antifungal activity against Candida glabrata clinical isolate assessed as fungal growth inhibition by CLSI based serial microbroth dilution method; assay type: functional
[8] = system: Pichia kudriavzevii; assay: Antifungal activity against Candida krusei GIM 2.1 assessed as fungal growth inhibition by CLSI based serial microbroth dilution method; assay type: functional
[9] = system: Aspergillus fumigatus; assay: Antifungal activity against Aspergillus fumigatus CGMCC 3.7795 assessed as fungal growth inhibition by CLSI based serial microbroth dilution method; assay type: functional
[10] = system: Candida albicans; assay: Antifungal activity against FLC and ITC-resistant Candida albicans 17 assessed as fungal growth inhibition by CLSI based serial microbroth dilution method; assay type: functional
[11] = system: Candida albicans; assay: Antifungal activity against FLC-resistant Candida albicans CaR assessed as fungal growth inhibition by CLSI based serial microbroth dilution method; assay type: functional
[12] = system: Candida albicans; assay: Antifungal activity against FLC-resistant Candida albicans 901 assessed as fungal growth inhibition by CLSI based serial microbroth dilution method; assay type: functional
[13] = system: Candida albicans; assay: Antifungal activity against FLC-resistant Candida albicans 904 assessed as fungal growth inhibition by CLSI based serial microbroth dilution method; assay type: functional
[14] = system: Candida albicans; assay: Antifungal activity against FLC-resistant Candida albicans 632 assessed as fungal growth inhibition by CLSI based serial microbroth dilution method; assay type: functional
[15] = system: Candida albicans; assay: Antifungal activity against FLC-resistant Candida albicans 100 assessed as fungal growth inhibition by CLSI based serial microbroth dilution method; assay type: functional
[16] = system: Candida albicans; assay: Antifungal activity against FLC-resistant Candida albicans 103 assessed as fungal growth inhibition by CLSI based serial microbroth dilution method; assay type: functional
[17] = system: Candida albicans; assay: Antifungal activity against FLC-resistant Candida albicans 311 assessed as fungal growth inhibition by CLSI based serial microbroth dilution method; assay type: functional
[18] = system: Cell membrane; assay: Disruption of membrane integrity in Candida albicans ATCC SC5314 assessed as rupture of fungal cells at 16 ug/ml incubated for 48 hrs by transmission electron microscopy; assay type: subcellular; conditions: dose 16.0 µg/ml
[19] = system: Cell membrane; assay: Disruption of membrane integrity in Candida albicans ATCC SC5314 assessed as cell membrane damage at 16 ug/ml incubated for 48 hrs by transmission electron microscopy; assay type: subcellular; conditions: dose 16.0 µg/ml
[20] = system: Cell membrane; assay: Disruption of membrane integrity in Candida albicans ATCC SC5314 assessed as endogenous substances leakage at 16 ug/ml incubated for 48 hrs by transmission electron microscopy; assay type: subcellular; conditions: dose 16.0 µg/ml
[21] = system: Candida albicans; assay: Antibiofilm activity against Candida albicans […] assessed as inhibition of […] metabolism within the biofilm measured after 3 hrs by XTT reduction assay; assay type: functional
[22] = system: Candida albicans; assay: Antibiofilm activity against Candida albicans […] assessed as inhibition of […] metabolism within the biofilm measured after 6 hrs by XTT reduction assay; assay type: functional
[23] = system: Candida albicans; assay: Antibiofilm activity against Candida albicans […] assessed as inhibition of […] metabolism within the biofilm measured after 18 hrs by XTT reduction assay; assay type: functional
[24] = system: Candida albicans; assay: Antibiofilm activity against Candida albicans […] assessed as inhibition of […] metabolism activity in the biofilm measured after 24 hrs by XTT reduction assay; assay type: functional
[25] = system: Candida albicans; assay: Antibiofilm activity against Candida albicans […] assessed as inhibition of […] metabolism activity in the biofilm measured after 48 hrs by XTT reduction assay; assay type: functional
[26] = system: Candida albicans; assay: Fungicidal activity against Candida albicans CPCC400616 measured after 48 hrs; assay type: functional
[27] = system: A549; assay: Cytotoxicity against human A549 cells assessed as reduction in cell viability incubated for 96 hrs by MTT assay; assay type: functional, cell-based; conditions: A549, 96 h
[28] = system: MCF7; assay: Cytotoxicity against human MCF7 cells assessed as reduction in cell viability incubated for 96 hrs by MTT assay; assay type: functional, cell-based; conditions: MCF7, 96 h
[29] = Cytotoxicity against human HepG2 cells assessed as reduction in cell viability incubated for 96 hrs by MTT assay; assay type: toxicity, cell-based
[30] = system: RAW264.7; assay: Cytotoxicity against mouse RAW264.7 cells assessed as reduction in cell viability incubated for 96 hrs by MTT assay; assay type: functional, cell-based; conditions: RAW264.7, 96 h
[31] = Stability of the compound in human plasma assessed as parent compound remaining after […] by LC-MS/MS analysis; assay type: ADME, cell-free; conditions: read-out: Stability
[32] = Stability of the compound in human plasma assessed as parent compound remaining after 120 hrs by LC-MS/MS analysis; assay type: ADME, cell-free; conditions: read-out: Stability
[33] = Stability of the compound in human plasma assessed as half life measured after […] by LC-MS/MS analysis; assay type: ADME, cell-free
[34] = system: Cell membrane; assay: Disruption of membrane integrity in Candida albicans ATCC SC5314 assessed as cell wall damage at 16 ug/ml incubated for 48 hrs by transmission electron microscopy; assay type: subcellular; conditions: dose 16.0 µg/ml
[35] = biological target: T1, Lanosterol 14-alpha demethylase (Candida albicans (strain SC5314 / ATCC MYA-2876) (Yeast), UniProt P10613); assay: Inhibition of CYP51 in Candida albicans ATCC SC5314 assessed as lanosterol level at 0.0075 ug/ml measured after 18 hrs by GC-MS analysis relative to control; set-up: scale not given: the % may be the effect or the level left; conditions: at 0.0075 µg/mL
T1 sequence (P10613 whole entry): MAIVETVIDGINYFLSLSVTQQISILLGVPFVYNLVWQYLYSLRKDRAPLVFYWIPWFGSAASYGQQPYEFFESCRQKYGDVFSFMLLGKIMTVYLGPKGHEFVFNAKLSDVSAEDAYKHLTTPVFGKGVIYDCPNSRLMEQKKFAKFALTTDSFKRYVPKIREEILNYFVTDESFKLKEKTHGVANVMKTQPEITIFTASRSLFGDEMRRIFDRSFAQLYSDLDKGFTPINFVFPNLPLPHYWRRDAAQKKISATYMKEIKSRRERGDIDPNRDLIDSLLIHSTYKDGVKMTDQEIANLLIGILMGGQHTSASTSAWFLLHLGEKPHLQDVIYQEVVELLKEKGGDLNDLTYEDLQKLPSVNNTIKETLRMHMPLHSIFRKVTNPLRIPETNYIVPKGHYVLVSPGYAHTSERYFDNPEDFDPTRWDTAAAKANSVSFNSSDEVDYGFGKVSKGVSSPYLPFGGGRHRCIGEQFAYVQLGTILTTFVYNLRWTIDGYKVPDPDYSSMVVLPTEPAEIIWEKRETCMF

[36] = biological target: T1, Lanosterol 14-alpha demethylase; assay: Inhibition of CYP51 in Candida albicans ATCC SC5314 assessed as ergosterol level at 0.0075 ug/ml measured after 18 hrs by GC-MS analysis (reference value: 96.93 %); set-up: scale not given: the % may be the effect or the level left; conditions: at 0.0075 µg/mL
[37] = biological target: T1, Lanosterol 14-alpha demethylase; assay: Inhibition of CYP51 in Candida albicans ATCC SC5314 assessed as eburicol level at 0.0075 ug/ml measured after 18 hrs by GC-MS analysis relative to control; set-up: scale not given: the % may be the effect or the level left; conditions: at 0.0075 µg/mL
[38] = biological target: T1, Lanosterol 14-alpha demethylase; assay: Inhibition of CYP51 in Candida albicans ATCC SC5314 assessed as 14alpha-methylergosta-8,24(28)-dien-3beta-6alpha-diol level at 0.0075 ug/ml measured after 18 hrs by GC-MS analysis relative to control; set-up: scale not given: the % may be the effect or the level left; conditions: at 0.0075 µg/mL
[39] = biological target: T1, Lanosterol 14-alpha demethylase; assay: Inhibition of CYP51 in Candida albicans ATCC SC5314 assessed as unknown sterol level at 0.0075 ug/ml measured after 18 hrs by GC-MS analysis (reference value: 3.07 %); set-up: scale not given: the % may be the effect or the level left; conditions: at 0.0075 µg/mL
[40] = system: Candida albicans; assay: Fungicidal activity in Candida albicans CPCC400616 assessed as reduction in viable colony formation at 0.25 ug/ml measured within 16 hrs by time kill assay; assay type: functional, organism-based; conditions: dose 0.25 µg/ml

Fc1cccc(F)c1CC1(Cn2ccnc2)COC(c2ccc(-c3ccsc3)cc2)=N1 (centres undefined)
IC50 at 96 h [1]: 22.6 µM | MIC [2]: 0.06 µg/mL (≈ 0.138 µM) | MIC [3]: 0.015 µg/mL (≈ 0.0344 µM) | MIC [4]: 0.015 µg/mL (≈ 0.0344 µM) | MIC [5]: 0.125 µg/mL (≈ 0.287 µM) | MIC [6]: 0.125 µg/mL (≈ 0.287 µM) | MIC [7]: 0.06 µg/mL (≈ 0.138 µM) | MIC [8]: 0.25 µg/mL (≈ 0.574 µM) | MIC [9]: 8 µg/mL (≈ 18.4 µM) | MIC [10]: 8 µg/mL (≈ 18.4 µM) | MIC [11]: 1 µg/mL (≈ 2.3 µM) | MIC [12]: 0.5 µg/mL (≈ 1.15 µM) | MIC [13]: 2 µg/mL (≈ 4.59 µM) | MIC [14]: 4 µg/mL (≈ 9.18 µM) | MIC [15]: 4 µg/mL (≈ 9.18 µM) | MIC [16]: 2 µg/mL (≈ 4.59 µM) | MIC [17]: 8 µg/mL (≈ 18.4 µM) | Activity [18]: Active | Activity [19]: Active | Activity [20]: Active | MIC50 [21]: 0.25 µg/mL (≈ 0.574 µM) | MIC50 [22]: 0.5 µg/mL (≈ 1.15 µM) | MIC50 [23]: 4 µg/mL (≈ 9.18 µM) | MIC50 [24]: 32 µg/mL (≈ 73.5 µM) | MIC50 [25]: > 64 µg/mL | MFC [26]: 1 µg/mL (≈ 2.3 µM) | IC50 [27]: > 50 µM | IC50 [28]: > 50 µM | IC50 at 96 h [29]: 34.2 µM | IC50 [30]: 7.58 µM | remaining [31]: 88.5% | remaining at 120 h [32]: 90.1% | half-life [33]: > 4.8 h | Activity [34]: Active

Fc1cccc(F)c1CC1(Cn2cncn2)COC(c2ccc(-c3ccsc3)cc2)=N1 (centres undefined)
IC50 at 96 h [1]: > 50 µM | MIC [2]: 0.015 µg/mL (≈ 0.0344 µM) | MIC [3]: 0.015 µg/mL (≈ 0.0344 µM) | MIC [4]: 0.03 µg/mL (≈ 0.0687 µM) | MIC [5]: 0.06 µg/mL (≈ 0.137 µM) | MIC [6]: 0.125 µg/mL (≈ 0.286 µM) | MIC [7]: 0.06 µg/mL (≈ 0.137 µM) | MIC [8]: 0.125 µg/mL (≈ 0.286 µM) | MIC [9]: 16 µg/mL (≈ 36.7 µM) | MIC [10]: 4 µg/mL (≈ 9.16 µM) | MIC [11]: 0.25 µg/mL (≈ 0.573 µM) | MIC [12]: 0.25 µg/mL (≈ 0.573 µM) | MIC [13]: 1 µg/mL (≈ 2.29 µM) | MIC [14]: 4 µg/mL (≈ 9.16 µM) | MIC [15]: 1 µg/mL (≈ 2.29 µM) | MIC [16]: 1 µg/mL (≈ 2.29 µM) | MIC [17]: 2 µg/mL (≈ 4.58 µM) | Activity [35]: 31.91% | Activity [36]: 4.61% | Activity [37]: 24.69% | Activity [38]: 28.2% | Activity [39]: 1.92% | Activity [18]: Active | Activity [19]: Active | Activity [20]: Active | MIC50 [21]: 0.125 µg/mL (≈ 0.286 µM) | MIC50 [22]: 0.125 µg/mL (≈ 0.286 µM) | MIC50 [23]: 2 µg/mL (≈ 4.58 µM) | MIC50 [24]: 16 µg/mL (≈ 36.7 µM) | MIC50 [25]: > 64 µg/mL | MFC [26]: 0.25 µg/mL (≈ 0.573 µM) | Activity [40]: Active | IC50 [27]: > 50 µM | IC50 [28]: > 50 µM | IC50 at 96 h [29]: 39.3 µM | IC50 [30]: 32.5 µM | remaining [31]: 96.8% | remaining at 120 h [32]: 98.2% | half-life [33]: > 4.8 h | Activity [34]: Active
